Laboratory results published in patent US6831087B2, “Pyridine substituted isoquinoline derivatives” (Hoffmann-La Roche Inc., priority 2001, dated 2004).
Counter-ions that a name gives are not always drawn.

Molecular target: T1, NMDA-receptor subtype 2B (Rattus norvegicus, UniProt P35439+Q00960)
T1 construct: Membranes were prepared by homogenization of the whole brain minus cerebellum and medulla oblongata; from tissue; host or cells: rat whole brain minus cerebellum and medulla oblongata (membranes)
T1 sequence (Q00960 27-1482, other chains not shown): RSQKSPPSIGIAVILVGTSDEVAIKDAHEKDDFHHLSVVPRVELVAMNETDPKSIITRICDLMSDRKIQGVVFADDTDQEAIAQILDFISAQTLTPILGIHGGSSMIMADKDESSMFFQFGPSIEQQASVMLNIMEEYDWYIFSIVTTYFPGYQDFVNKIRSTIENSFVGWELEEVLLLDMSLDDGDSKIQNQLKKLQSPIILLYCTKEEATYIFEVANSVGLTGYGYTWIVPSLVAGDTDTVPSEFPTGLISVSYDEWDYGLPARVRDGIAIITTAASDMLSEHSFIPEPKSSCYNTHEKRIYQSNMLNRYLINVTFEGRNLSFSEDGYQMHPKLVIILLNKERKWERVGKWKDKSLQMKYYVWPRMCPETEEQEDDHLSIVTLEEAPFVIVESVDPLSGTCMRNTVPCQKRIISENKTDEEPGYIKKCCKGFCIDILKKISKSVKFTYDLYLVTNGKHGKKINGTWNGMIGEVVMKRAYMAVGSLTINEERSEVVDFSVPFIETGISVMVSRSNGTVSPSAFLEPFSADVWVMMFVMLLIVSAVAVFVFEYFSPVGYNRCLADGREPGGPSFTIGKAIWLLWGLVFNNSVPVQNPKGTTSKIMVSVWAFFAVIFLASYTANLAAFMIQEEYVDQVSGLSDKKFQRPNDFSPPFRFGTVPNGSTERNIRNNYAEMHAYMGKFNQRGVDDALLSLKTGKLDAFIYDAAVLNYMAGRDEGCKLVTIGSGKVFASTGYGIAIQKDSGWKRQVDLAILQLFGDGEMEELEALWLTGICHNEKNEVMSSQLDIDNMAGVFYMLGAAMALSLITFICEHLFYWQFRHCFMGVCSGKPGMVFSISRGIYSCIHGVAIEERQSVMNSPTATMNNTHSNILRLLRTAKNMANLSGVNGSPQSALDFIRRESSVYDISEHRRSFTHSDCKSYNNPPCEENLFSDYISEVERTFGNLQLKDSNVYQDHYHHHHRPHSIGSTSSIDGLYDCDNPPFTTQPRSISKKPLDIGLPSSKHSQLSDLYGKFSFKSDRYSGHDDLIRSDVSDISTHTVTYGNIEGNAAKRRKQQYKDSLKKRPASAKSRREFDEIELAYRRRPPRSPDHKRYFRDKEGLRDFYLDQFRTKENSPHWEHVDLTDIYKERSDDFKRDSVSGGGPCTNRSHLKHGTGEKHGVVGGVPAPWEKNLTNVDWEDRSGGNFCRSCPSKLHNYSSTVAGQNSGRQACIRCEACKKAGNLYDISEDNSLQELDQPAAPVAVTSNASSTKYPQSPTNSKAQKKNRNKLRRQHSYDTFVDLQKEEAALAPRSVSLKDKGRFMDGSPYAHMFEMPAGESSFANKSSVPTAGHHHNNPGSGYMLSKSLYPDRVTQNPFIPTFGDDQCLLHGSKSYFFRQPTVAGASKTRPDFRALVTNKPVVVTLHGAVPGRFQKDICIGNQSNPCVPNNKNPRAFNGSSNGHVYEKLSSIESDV
Test: 3H-Ro 25-6981 binding (displacement) on rat brain membranes
Settings: displacement of 5 nM 3H-Ro 25-6981, rat whole brain minus cerebellum and medulla oblongata membranes, 2 hours at 4° C., pH 7.4
Experimental: ^3H-Ro 25-6981 binding (Ro 25-6981 is [R-(R*,S*)]-α-(4-hydroxy-phenyl)-β-methyl-4-(phenyl-methyl)-1-piperidine propanol)
Male Füllinsdorf albino rats weighing between 150-200 g were used. Membranes were prepared by homogenization of the whole brain minus cerebellum and medulla oblongata with a Polytron (10.000 rpm, 30 seconds), in 25 volumes of a cold Tris-HCl 50 mM, EDTA 10 mM, pH 7.1 buffer. The homogenate was centrifuged at 48,000 g for 10 minutes at 4° C. The pellet was resuspended using the Polytron in the same volume of buffer and the homogenate was incubated at 37° C. for 10 minutes. After centrifugation the pellet was homogenized in the same buffer and frozen at −80° C. for at least 16 hours but not more than 10 days. For the binding assay the homogenate was thawed at 37° C., centrifuged and the pellet was washed three times as above in a Tris-HCl 5 mM, pH 7.4 cold buffer. The final pellet was resuspended in the same buffer and used at a final concentration of […].
^3H-Ro 25-6981 binding experiments were performed using a Tris-HCl 50 mM, pH 7.4 buffer. For displacement experiments 5 nM of ^3H-Ro 25-6981 were used and non specific binding was measured using 10 mM of tetrahydroisoquinoline and usually it accounts for 10% of the total. The incubation time was 2 hours at 4° C. and the assay was stopped by filtration on Whatmann GF/B glass fiber filters (Unifilter-96, Packard, Zurich, Switzerland). The filters were washed 5 times with cold buffer. The radioactivity on the filter was counted on a Packard Top-count microplate scintillation counter after addition of […] of microscint 40 (Canberra Packard S. A., Züirich, Switzerland).
The above procedure was performed to determine data for calculation of an IC50 value. The IC50 value is a concentration expressed in micromoles (μM) for a test compound at which 50% of the ligand (in this determination, ^3H-Ro 25-6981) bonded to the receptor is displaced. The binding ability of the compounds of the invention was measured in vitro using a minimum of 10 concentrations and repeated at least once. The specific binding at each concentration was then calculated as the % of the maximum specific binding (100%) obtained in the same experiment, in the absence of a test compound. Competitive displacement of ^3H-Ro 25-6981 was observed, with complete displacement of the radioligand from specific binding sites (usually about 0% of specific binding at the highest concentrations tested). An IC50 value was then calculated with all the ten datapoints (% of specific bound) by plotting the data on a semilogarithmic scale with a sigmoidal fit (Log of the molar concentration on X-axis vs. % of specific bound on the Y-axis) using Microsoft Excel fit software or Microcal Origin software. The pooled normalized values were analyzed using a non-linear regression calculation program which provide IC50 with their relative upper and lower 95% confidence limits.

For Nc1ccnc(N2CCc3ccccc3C2)c1 [Example 1, 2-(3,4-Dihydro-1H-isoquinolin-2-yl)-pyridin-4-yl-amine], which IC50 is on record?
Its IC50 is 8 nM.

For Cc1cnc(N2CCc3ccccc3C2)cc1N [Example 3, 2-(3,4-Dihydro-1H-isoquinolin-2-yl)-5-methyl-pyridin-4-yl-amine], which IC50 is on record?
The IC50 was 11 nM.

With Cc1cc(N)cc(N2CCc3ccccc3C2)n1 [Example 4, 2-(3,4-Dihydro-1H-isoquinolin-2-yl)-6-methyl-pyridin-4-yl-amine] as the compound, how does the IC50 read?
The IC50 was 14 nM.

With CCc1cc(N)cc(N2CCc3ccccc3C2)n1 [Example 5, 2-(3,4-Dihydro-1H-isoquinolin-2-yl)-6-ethyl-pyridin-4-yl-amine] as the compound, how does the IC50 read?
The IC50 was 5.3 nM.

With Nc1cc(CO)nc(N2CCc3ccccc3C2)c1 [Example 6, [4-Amino-6-(3,4-dihydro-1H-isoquinolin-2-yl)-pyridin-2-yl]-methanol] as the compound, how does the IC50 read?
The IC50 was 11 nM.

With OCCNc1ccnc(N2CCc3ccccc3C2)c1 [Example 9, 2-[2-(3,4-Dihydro-1H-isoquinolin-2-yl)-pyridin-4-yl-amino]-ethanol] as the compound, how does the IC50 read?
Its IC50 is 6 nM.

With Cc1cc(NCCO)cc(N2CCc3ccccc3C2)n1 [Example 10, 2-[2-(3,4-Dihydro-1H-isoquinolin-2-yl)-6-methyl-pyridin-4-yl-amino]-ethanol] as the compound, how does the IC50 read?
The IC50 was 11 nM.

For Nc1cc(N2CCc3ccccc3C2)ccn1 [Example 30, 4-(3,4-Dihydro-1H-isoquinolin-2-yl)-pyridin-2-yl-amine], which IC50 is on record?
Its IC50 is 4 nM.

With Cc1cc(N2CCc3ccccc3C2)ccn1 [Example 31, 2-(2-Methyl-pyridin-4-yl)-1,2,3,4-tetrahydro-isoquinoline] as the compound, how does the IC50 read?
The IC50 was 20 nM.

Which IC50 does the source give for Cc1cc(N2CCc3ccccc3C2)cc(N)n1 [Example 32, 4-(3,4-Dihydro-1H-isoquinolin-2-yl)-6-methyl-pyridin-2-yl-amine] here?
Its IC50 is 11 nM.

Which IC50 does the source give for CCOC(=O)C(=O)Nc1cc(N2CCc3ccccc3C2)cc(C)n1 [Example 33, N-[4-(3,4-Dihydro-1H-isoquinolin-2-yl)-6-methyl-pyridin-2-yl]-oxalamic acid ethyl ester] here?
Its IC50 is 20 nM.

With Cc1cc(N2CCc3ccccc3C2)cc(NCCO)n1 [Example 35, 2-[4-(3,4-Dihydro-1H-isoquinolin-2-yl)-6-methyl-pyridin-2-yl-amino]-ethanol] as the compound, how does the IC50 read?
The IC50 was 4 nM.

Test system: not given
Test: not given
Settings: not given

For CCNc1ccnc(N2CCc3ccccc3C2)c1 (as salt: fumarate) [Example 16, [2-(3,4-Dihydro-1H-isoquinolin-2-yl)-pyridin-4-yl]-ethyl-amine], which melting point is on record?
The melting point was 73 to 74 °C.

With Clc1cccc2c1CN(c1ccncc1)CC2 (as salt: fumarate) [Example 26, 8-Chloro-2-pyridin-4-yl-1,2,3,4-tetrahydro-isoquinoline] as the compound, how does the melting point read?
Its melting point is 178 to 179 °C.

For Cc1cc(N2CCc3ccccc3C2)ccn1 (as salt: fumarate) [Example 31, 2-(2-Methyl-pyridin-4-yl)-1,2,3,4-tetrahydro-isoquinoline], which melting point is on record?
Its melting point is 155 to 156 °C.

Which melting point does the source give for Cc1cc(N2CCc3ccccc3C2)cc(N)n1 (as salt: fumarate) [Example 32, 4-(3,4-Dihydro-1H-isoquinolin-2-yl)-6-methyl-pyridin-2-yl-amine] here?
Its melting point is greater than 270 °C.

For Cc1cc(N2CCc3ccccc3C2)cc(NCCO)n1 (as salt: fumarate) [Example 35, 2-[4-(3,4-Dihydro-1H-isoquinolin-2-yl)-6-methyl-pyridin-2-yl-amino]-ethanol], which melting point is on record?
Its melting point is 160 °C.

Which melting point does the source give for Nc1cc(N2CCc3ccccc3C2)nc2c1CCCC2 (as salt: hydrochloride) [Example 7, 2-(3,4-Dihydro-1H-isoquinolin-2-yl)-5,6,7,8-tetrahydro-quinolin-4-yl-amine] here?
The melting point was 109 to 110 °C.

With CN1COCc2c1ccnc2N1CCc2ccccc2C1 (as salt: hydrochloride) [Example 14, 5-(3,4-Dihydro-1H-isoquinolin-2-yl)-1-methyl-1,4-dihydro-2H-pyrido[4,3-d][1,3]oxazine] as the compound, how does the melting point read?
The melting point was 220 to 221 °C.

With NCc1cccc(N2CCc3ccccc3C2)n1 (as salt: hydrochloride) [Example 22, C-[6-(3,4-Dihydro-1H-isoquinolin-2-yl)-pyridin-2-yl]-methylamine] as the compound, how does the melting point read?
Its melting point is 192 to 195 °C.

Which melting point does the source give for Clc1cccc2c1CCN(c1ccncc1)C2 (as salt: hydrochloride) [Example 25, 5-Chloro-2-pyridin-4-yl-1,2,3,4-tetrahydro-isoquinoline] here?
Its melting point is 258 to 259 °C.

For Clc1ccc2c(c1)CCN(c1ccncc1)C2 (as salt: hydrochloride) [Example 27, 6-Chloro-2-pyridin-4-yl-1,2,3,4-tetrahydro-isoquinoline], which melting point is on record?
The melting point was greater than 250 °C.

For Clc1ccc2c(c1)CN(c1ccncc1)CC2 (as salt: hydrochloride) [Example 28, 7-Chloro-2-pyridin-4-yl-1,2,3,4-tetrahydro-isoquinoline], which melting point is on record?
Its melting point is 100 to 101 °C.

For CCOC(=O)C(=O)Nc1cc(N2CCc3ccccc3C2)cc(C)n1 (as salt: hydrochloride) [Example 33, N-[4-(3,4-Dihydro-1H-isoquinolin-2-yl)-6-methyl-pyridin-2-yl]-oxalamic acid ethyl ester], which melting point is on record?
The melting point was > 160 °C (dec.).

Which melting point does the source give for CC1CN(c2cc(N)ccn2)Cc2ccccc21 (racemic) (as salt: fumarate) [Example 2, Rac.-2-(4-Methyl-3,4-dihydro-1H-isoquinolin-2-yl)-pyridin-4-yl-amine] here?
Its melting point is 178 to 179 °C.

For CC1CN(c2ccncc2)Cc2ccccc21 (racemic) (as salt: hydrochloride) [Example 29, rac.-4-Methyl-2-pyridin-4-yl-1,2,3,4-tetrahydro-isoquinoline], which melting point is on record?
The melting point was 224 to 227 °C.

With Nc1cc(N2CCc3ccccc3C2)ccn1 [Example 30, 4-(3,4-Dihydro-1H-isoquinolin-2-yl)-pyridin-2-yl-amine] as the compound, how does the melting point read?
The melting point was 160 to 161 °C.

With Cc1cc(N2CCc3ccccc3C2)cc(NC(=O)CO)n1 [Example 34, N-[4-(3,4-Dihydro-1H-isoquinolin-2-yl)-6-methyl-pyridin-2-yl]-2-hydroxy-acetamide] as the compound, how does the melting point read?
Its melting point is 160 to 162 °C.
